Measured values from patent US8778871B2 (Takeda Pharmaceutical Company Limited, priority 2004, dated 2014).
Starred links: 1 amine or outer side, 2 acyl side, 3 side chain; linkers in the order of their positions; H or OH if unused. Non-standard residues stand in square brackets, D forms with d. Residues, ends and D or L forms follow the SMILES beside them. *: point of attachment. X1 = NC(=O)C[C@@H](C(=O)[*:2])N(C[C@@H](N)Cc1ccc(O)cc1)[*:1]; X3 = O=C(CNC(=S)[C@H](Cc1ccccc1)N[*:1])[*:2]; Arg(Me) = CNC(=N)NCCC[C@H](N)C(=O)O; 4Pal = N[C@@H](Cc1ccncc1)C(=O)O; Cha = N[C@@H](CC1CCCCC1)C(=O)O; Orn = NCCC[C@H](N)C(=O)O; Bz = O=C(c1ccccc1)*; azaGly = NNC(=O)O

Assays:
[1] = biological target: T1, hOT7T175 (Homo sapiens, UniProt Q969F8, L364H); assay type: cell-based; conditions: hOT7T175/CHO, FLIPR, evaluation for 40 seconds after initiation of the reaction
T1 construct: expressed in transfected cells
Protocol: The intracellular Ca ion level-increasing activity was measured using FLIPR as in TEST EXAMPLE 2.

[2] = biological target: T2, hOT7T175 (Homo sapiens, UniProt Q969F8); experiment: Intracellular Ca ion level-increasing activity using FLIPR (180 seconds; specific activity to Metastin (1-54)); assay type: cell-based; conditions: hOT7T175/CHO, change in intracellular calcium ion level for 180 seconds, Tables 21-23
T2 construct: expressed in transfected cells
T2 sequence (Q969F8 whole entry L364H): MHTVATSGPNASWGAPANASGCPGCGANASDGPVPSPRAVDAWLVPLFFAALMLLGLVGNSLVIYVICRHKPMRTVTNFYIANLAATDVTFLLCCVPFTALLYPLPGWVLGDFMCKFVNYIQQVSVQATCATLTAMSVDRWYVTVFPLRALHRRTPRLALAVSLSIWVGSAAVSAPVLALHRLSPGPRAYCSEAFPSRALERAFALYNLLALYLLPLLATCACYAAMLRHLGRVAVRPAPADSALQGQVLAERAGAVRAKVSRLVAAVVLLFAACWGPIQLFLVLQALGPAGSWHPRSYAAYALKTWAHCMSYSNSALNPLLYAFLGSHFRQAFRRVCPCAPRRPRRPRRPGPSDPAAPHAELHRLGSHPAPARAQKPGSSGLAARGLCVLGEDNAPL

T1 sequence (Q969F8 whole entry L364H): as above

| Compound | Specific Act. (EC50/MS10 EC50) [1] | intracellular Ca ion level-increasing activity [specific activity to Metastin (1-54)] [2] |
| --- | --- | --- |
| CC(C)C[C@H](NC(=O)CNC(=O)[C@H](Cc1ccccc1)NC(=O)[C@H](CO)NC(=O)[C@H](CC(N)=O)NC(=O)[C@H](Cc1c[nH]c2ccccc12)NC(=O)[C@H](CC(N)=O)NC[C@@H](N)Cc1ccc(O)cc1)C(=O)N[C@@H](CCCNC(=N)N)C(=O)N[C@@H](Cc1ccccc1)C(N)=O [Compound No. 294] (H-[X1]WNSFGLRF-NH2) | 0.7 | 10 |
| CNC(=N)NCCC[C@H](NC(=O)[C@H](CC(C)C)NC(=O)CNC(=S)[C@H](Cc1ccccc1)NC(=O)[C@H](CO)NC(=O)[C@H](CC(N)=O)NC(=O)[C@H](Cc1c[nH]c2ccccc12)NC(=O)[C@H](CC(N)=O)NC(=O)[C@H](N)Cc1ccc(O)cc1)C(=O)N[C@@H](Cc1ccccc1)C(N)=O [Compound No. 296, D-Tyr-Asn-Trp-Asn-Ser-PheΨ(CSNH)Gly-Leu-Arg(Me)-Phe-NH2] (H-[dY]NWNS[X3]L[Arg(Me)]F-NH2) | 5.2 | 3 |
| CNC(=N)NCCC[C@H](NC(=O)[C@H](CC(C)C)NC(=O)NNC(=O)[C@H](Cc1ccccc1)NC(=O)[C@@H](NC(=O)[C@H](CC(N)=O)NC(=O)[C@H](Cc1c[nH]c2ccccc12)NC(=O)[C@H](CC(N)=O)NC(=O)[C@H](N)Cc1ccc(O)cc1)[C@@H](C)O)C(=O)N[C@@H](Cc1ccccc1)C(N)=O [Compound No. 297, D-Tyr-Asn-Trp-Asn-Thr-Phe-AzaGly-Leu-Arg(Me)-Phe-NH2] (H-[dY]NWNTF[azaGly]L[Arg(Me)]F-NH2) | 5.5 | 1 |
| CNC(=N)NCCC[C@H](NC(=O)[C@H](CC(C)C)NC(=O)NNC(=O)[C@H](Cc1ccccc1)NC(=O)[C@@H](NC(=O)[C@H](CC(N)=O)NC(=O)[C@H](Cc1c[nH]c2ccccc12)NC(=O)[C@@H](CC(N)=O)NC(=O)[C@H](N)Cc1ccc(O)cc1)[C@@H](C)O)C(=O)N[C@@H](Cc1ccccc1)C(N)=O [Compound No. 298, D-Tyr-D-Asn-Trp-Asn-Thr-Phe-AzaGly-Leu-Arg(Me)-Phe-NH2] (H-[dY][dN]WNTF[azaGly]L[Arg(Me)]F-NH2) | 1.8 | 5 |
| CNC(=N)NCCC[C@H](NC(=O)[C@H](CC(C)C)NC(=O)NNC(=O)[C@H](Cc1ccccc1)NC(=O)[C@H](CO)NC(=O)[C@H](CC(N)=O)NC(=O)[C@H](Cc1ccncc1)NC(=O)[C@@H](CC(N)=O)NC(=O)[C@H](N)Cc1ccc(O)cc1)C(=O)N[C@@H](Cc1ccccc1)C(N)=O [Compound No. 303, D-Tyr-D-Asn-Pya(4)-Asn-Ser-Phe-AzaGly-Leu-Arg(Me)-Phe-NH2] (H-[dY][dN][4Pal]NSF[azaGly]L[Arg(Me)]F-NH2) | 6.9 | 5 |
| CNC(=N)NCCC[C@H](NC(=O)[C@H](CC(C)C)NC(=O)CNC[C@H](Cc1ccccc1)NC(=O)[C@H](CO)NC(=O)[C@H](CC(N)=O)NC(=O)[C@H](Cc1c[nH]c2ccccc12)NC(=O)[C@H](CC(N)=O)NC(=O)[C@H](N)Cc1ccc(O)cc1)C(=O)N[C@@H](Cc1ccccc1)C(N)=O [Compound No. 308, D-Tyr-Asn-Trp-Asn-Ser-PheΨ(CH2NH)Gly-Leu-Arg(Me)-Phe-NH2] | 2.6 | 2 |
| CC(C)C[C@H](NC(=O)CNC(=O)[C@H](Cc1ccccc1)NC(=O)[C@H](CO)NC(=O)[C@H](CC(N)=O)NC(=O)[C@H](Cc1c[nH]c2ccccc12)NC(=O)[C@H](CC(N)=O)NC(=O)[C@@H](N)Cc1ccc(O)cc1)C(=O)N[C@@H](CCCN)C(=O)N[C@@H](Cc1ccccc1)C(N)=O [Compound No. 314] (H-YNWNSFGL[Orn]F-NH2) | 4.4 | 1 |
| CNC(=N)NCCC[C@H](NC(=O)[C@H](CC(C)C)NC(=O)NNC(=O)[C@H](Cc1ccccc1)NC(=O)[C@H](CO)NC(=O)[C@H](CC(N)=O)NC(=O)[C@H](Cc1c[nH]c2ccccc12)NC(=O)[C@H](CC(N)=O)NC(=O)[C@H](N)Cc1ccc(O)cc1)C(=O)N[C@@H](Cc1ccc(F)cc1)C(N)=O [Compound No. 318, D-Tyr-Asn-Trp-Asn-Ser-Phe-AzaGly-Leu-Arg(Me)-Phe(4F)-NH2] | 2.9 | 5 |
| (2S)-2-(3-Indolylprpionyloxy)-3-phenylpropionyl-AzaGly-Leu-Arg(Me)-Trp-NH2 [Compound No. 379] | 3.0 | 2 |
| Ac-NSF[azaGly]L[Arg(Me)]W-NH2 [Compound No. 510] | 3.5 | 3 |
| Ac-Phe-AzaGly-Leu-Arg(Me)-Trp-NH2 [Compound No. 358] | 5.6 | 2 |
| Acp-D-Tyr-D-Pya(4)-Asn-Ser-Phe-AzaGly-Leu-Arg(Me)-Phe-NH2 [Compound No. 504] | 6.9 | 2 |
| Benzoyl-Phe-AzaGly-Leu-Arg(Me)-Trp-NH2 [Compound No. 353] | 0.8 | 10 |
| Benzoyl-PheΨ(NHCO)Gly-Leu-Arg(Me)-Trp-NH2 [Compound No. 423] | 5.6 | 5 |
| Bz-F[azaGly]L[Arg(Me)]F-NH2 [Compound No. 341] | 2.8 | 2 |
| Bz-[Cha][azaGly]L[Arg(Me)]W-NH2 [Compound No. 449] | 4.2 | 5 |
| Cyclopropanecarbonyl-Cha-AzaGly-Leu-Arg(Me)-Trp-NH2 [Compound No. 451] | 2.6 | 5 |
| Cyclopropanecarbonyl-Phe-AzaGly-Leu-Arg(Me)-Trp-NH2 [Compound No. 447] | 1.4 | 5 |
| D-Tyr-D-Pya(4)-Asn-Ile-Phe-AzaGly-Leu-Arg(Me)-Trp-NH2 [Compound No. 498] | 1.5 | 7 |

| Compound | Specific Act. (EC50/MS10 EC50) [1] | intracellular Ca ion level-increasing activity [specific activity to Metastin (1-54)] [2] |
| --- | --- | --- |
| D-Tyr-D-Pya(4)-Asn-Ser-Cha-Ala-Leu-Arg(Me)-Trp-NH2 [Compound No. 497] | 1.4 | 2 |
| D-Tyr-D-Pya(4)-Asn-Ser-Phe-AzaGly-Leu-Har-Phe-NH2 [Compound No. 488] | 5.5 | 1 |
| D-Tyr-D-Pya(4)-Asn-Ser-Phe-AzaGly-Leu-Har-Trp-NH2 [Compound No. 481] | 2.4 | 5 |
| D-Tyr-D-Pya(4)-Asn-Trp-Phe-AzaGly-Leu-Arg(Me)-Trp-NH2 [Compound No. 491] | 1.0 | 7 |
| D-Tyr-D-Pya(4)-Ser-Phe-AzaGly-Leu-Arg(Me)-Trp-NH2 [Compound No. 494] | 8.6 | ⅓ |
| D-Tyr-D-Pya(4)-Thr-Ser-Phe-AzaGly-Leu-Arg(Me)-Trp-NH2 [Compound No. 493] | 2.2 | 2 |
| D-Tyr-Pya(4)-Ala-Ser-Phe-AzaGly-Leu-Arg(Me)-Trp-NH2 [Compound No. 502] | 1.4 | 10 |
| D-Tyr-Pya(4)-Asn-Ser-Phe-AzaGly-Leu-Arg(Me)-Phe-NH2 [Compound No. 490] | 6.2 | 3 |
| Dap-D-Tyr-Asn-Trp-Asn-Ser-Phe-Gly-Leu-Arg(Me)-Phe-NH2 [Compound No. 387] | 5.0 | 1 |
| Dibenzylcarbamoyl-AzaGly-Leu-Arg(Me)-Trp-NH2 [Compound No. 393] | 5.9 | 1 |
| Dimethylcarbamoyl-Phe-AzaGly-Leu-Arg(Me)-Trp-NH2 [Compound No. 467] | 4.0 | 1 |
| Diphenylacetyl-AzaGly-Leu-Arg(Me)-Trp-NH2 [Compound No. 378] | 10.4 | ½ |
| Isobutyryl-Phe-AzaGly-Leu-Arg(Me)-Trp-NH2 [Compound No. 438] | 3.0 | 3 |
| Pyridazine-4-carbonyl-Phe-AzaGly-Leu-Arg(Me)-Trp-NH2 [Compound No. 480] | 8.3 | 1 |
| Pyrimidine-2-carbonyl-Phe-AzaGly-Leu-Arg(Me)-Trp-NH2 [Compound No. 479] | 2.6 | 5 |
| Pyrimidine-4-carbonyl-Phe-AzaGly-Leu-Arg(Me)-Trp-NH2 [Compound No. 475] | 4.2 | 3 |
| Pyrrole-2-carbonyl-Phe-AzaGly-Leu-Arg(Me)-Trp-NH2 [Compound No. 455] | 4.1 | 5 |
| Pyrrole-3-carbonyl-Phe-AzaGly-Leu-Arg(Me)-Trp-NH2 [Compound No. 474] | 3.2 | 5 |
